According to patent US20240197593A1, “CLEANSING COMPOSITION FOR FEMALE INTIMATE HYGIENE” (Conopco, Inc., d/b/a UNILEVER, priority 2021, published 2024):
Like-named read-outs stand apart in the source and are kept apart here.

Tested on: human cadaver skin
Conditions: normalized against time zero reading, average of 6 cells
Excerpt: Electrical impedance is a proxy indicator of change in skin permeability.
The impedance reading at each cell at different time points was normalized against the time zero-minute reading of that cell. For each test formulation, the impedance reading of each time point is the average normalized value of the 6 repeat cells at that time point. Note: SDS=sodium dodecyl sulphate.

CCCCCCCCCCCCOS(=O)(=O)[O-].[Na+] [SDS, sodium dodecyl sulphate]
normalized electrical impedance (time 0 minutes): 1.00 | normalized electrical impedance (time 5 minutes): 0.94 | normalized electrical impedance (time 10 minutes): 0.90 | normalized electrical impedance (time 15 minutes): 0.86 | normalized electrical impedance (time 30 minutes): 0.76
